The nature of data set [1]: Kinetic Solubility Analysis (CLND). The format is physicochemical. The conditions noted are these: 26 °C, kinetic from dmso stock. The protocol: Kinetic Solubility Analysis (CLND) Buffer Preparation:
0.1N HCl: Hydrochloric acid, 0.1N standardized solution.
1×PBS, 7.4: Phosphate Buffered Saline solution 10×, PBS 50 mL was added to approximately 450 mL HPLC grade H2O. The volume of the solution was then adjusted to 500 mL for a total dilution factor of 1:10 and a final PBS concentration of IX.
Kinetic Solubility from DMSO Stocks:
The final DMSO concentration is 1.0% and maximum theoretical compound concentration is 100 μM (assuming stock concentration of 10 mM). The filter plate was sealed. […] The collection plate was sealed for analysis. Filtrates were injected into the nitrogen detector for quantification.
The equimolar nitrogen response of the detector was calibrated using standards which spanned the dynamic range of the instrument from […] nitrogen. The filtrates were quantified with respect to this calibration curve. The calculated solubility values were corrected for background nitrogen present in the DMSO and the media used to prepare the samples.

Another data set can be described thus: in vivo. Particulars: beagle, dog, po.
Data set [2] deals with HIV-1 (IIIB) in MT-4 cells. As to the kind of experiment: MT-4 HIV Assay. In kind it is cell-based. The protocol:
Compounds were tested in a high-throughput 384-well assay format for their ability to inhibit the replication of HIV-1 (IIIB) in MT-4 cells. Compounds were serially diluted (1:3) in DMSO on 384-well polypropylene plates and further diluted 200-fold into complete RPMI media (10% FBS, 1% P/S) using the Biotek Micro Flow and Agilent ECHO acoustic dispenser. Each plate contained up to 8 test compounds, with negative (No Drug Control) and 5 μM AZT positive controls. MT-4 cells were pre-infected with 10 μL of either RPMI (mock-infected) or a fresh 1:250 dilution of an HIV-1 (IIIB) concentrated virus stock. Infected and uninfected MT-4 cells were further diluted in complete RPMI media and added to each plate using a Micro Flow dispenser. After 5 days incubation in a humidified and temperature controlled incubator (37° C.), Cell Titer Glo (Promega) was added to the assay plates to quantify the amount of luciferase. EC50 values were defined as the compound concentration that causes a 50% decrease in luminescence signal, and were calculated using a sigmoidal dose-response model to generate curve fits.

Data set [3] in a line: Liver microsomal stability (rat). In kind it is in vitro ADME. Particulars: rat liver microsomes 0.5 mg/mL, 1 μM compound, NADPH-regenerating system, 37° C. Here is the method:
(§1) Liver Microsomal Stability Protocol
(§2) Test compounds and one control compound (verapamil) were tested in 3 different species in duplicate sets.
(§3) Test compound concentration: 1 μM; Protein concentration: 0.5 mg/mL (for rat and human liver microsomes); Cofactor: NADPH-Regenerating system (NRS) solution. Time-points: 2, 12, 25, 45, and 65 minutes.
(§4) Reaction composition (in each incubation well) contains:
(§5) At an incubation temperature of 37° C., the reaction was started with addition of NADPH Regeneration System, at each time point, 25 μL of the reaction mixture was removed and added to a plate with 225 μL quenching solution (50% MeOH, 25% ACN, 25% H2O, and 200 nM labetalol as internal standard). After plates were vortexed, they were centrifuged for 30 minutes to remove proteins. About 100 μL supernatant was removed to a new plate and diluted with 150 μL water. About 20 μL of the mixture was injected into an LC/MS/MS system to monitor the compound's response. In vitro measured t1/2 was used to calculate Clint values.
Background: Liver microsomes are vesicles of endoplasmic reticulum, rich in cytochrome P450 enzymes.

Data set [4] can be described thus: Liver microsomal stability (human). Particulars: human liver microsomes 0.5 mg/mL, 1 μM compound, NADPH-regenerating system, 37° C. The format is in vitro ADME. Here is the method:
as §1, §2, §3, §4, §5

For data set [5] the following is noted: male, beagle, dog, in vivo.
Protocol: Pharmacokinetic Profiling Dog PK
(§6) Compound 11 was formulated in a suspension formulation (1% HPMC and 0.05% Tween 20 in DI Water) and administered orally at 10 mg-eq/kg to a dosing group consisting of three non-naïve male beagle dogs. At dosing, the animals weighed between 9 to 12 kg. The animals were fasted overnight prior to dose administration and up to four hours after dosing. Serial venous blood samples (approximately 1.0 mL each) were obtained at pre-dose, 0.25, 0.50, 1, 2, 4, 6, 8, 12, and 24 hours post-dose. The blood samples were collected into Vacutainer™ tubes containing EDTA-K2 as the anti-coagulant and were immediately placed on wet ice pending centrifugation for plasma. An LC/MS/MS method was used to measure the concentration of compound 11 and compound D in plasma. […] In a second experiment, compound D was dosed orally as a suspension using the same formulation and dose level.
The nature of a further data set: Rat PK. Particulars: compound 14 oral solution, 75 mg-eq/kg dose group, male SD rats, LC/MS/MS. In kind it is in vivo. The protocol: Compound 14 was formulated in a solution formulation (84% 10 mM HCl; 15% 2-Hydroxypropyl-β-Cyclodextrin; 1% Dimethyl sulfoxide pH 2.0) and administered orally at 2.5 and 75 mg-eq/kg to a dosing groups consisting of three male SD rats. At dosing, the animals weighed between 270 and 350 g. […] Trace amounts of compound 14 were detected in plasma in the 75 mg-eq/kg dose group.

[6] abbreviates: 0.1N HCl, pH 1, simulated gastric fluid, read-out: Solubility, HCl, pH 1.0, RT.
Setting [7] is: PBS, pH 7.4, aqueous buffer, read-out: Solubility, PBS, pH 7.4, RT.
Where [8] appears, read: Human immunodeficiency virus 1, MT4, 120 h, HIV-1 (IIIB) replication in MT-4 cells, 5 days incubation, Cell Titer Glo, read-out: EC50.

The term solubility denotes the dissolved amount per volume that the medium holds. In general, bioavailability refers to the share of a dose that reaches the circulation, judged against a reference dose that is usually intravenous. By EC50 is commonly meant the concentration needed to bring the measured effect to its halfway point.

≈ marks a conversion by molar mass, not a printed value. Where a name gives a salt, the structure may show the parent alone. Read-outs that look alike come from different tables or passages of the source. Where only a bound is given, the exact number is not on record here.

Protocol for in vivo: Pharmacokinetic Profiling Dog PK
as §6

For `COC(=O)N[C@H](C(=O)N[C@@H](Cc1ccc(C#Cc2cnc(N3CC4CCC(C3)N4C3COC3)nc2)cc1)[C@@H](O)CN(Cc1c(F)cc(-c2ccn(C(F)F)n2)cc1F)NC(=O)[C@@H](NC(=O)OC)C(C)(C)C(F)(F)F)C(C)(C)C(F)(F)F` [Compound D, methyl ((5S,8S,9S,14S)-11-(4-(1-(difluoromethyl)-1H-pyrazol-3-yl)-2,6-difluorobenzyl)-16,16,16-trifluoro-9-hydroxy-15,15-dimethyl-8-(4-((2-(8-(oxetan-3-yl)-3,8-diazabicyclo[3.2.1]octan-3-yl)pyrimidin-5-yl)ethynyl)benzyl)-3,6,13-trioxo-5-(1,1,1-trifluoro-2-methylpropan-2-yl)-2-oxa-4,7,11,12-tetraazahexadecan-14-yl)carbamate, reference compound], the figures for the solubility at 24 h in data set [1] (setting [6]) and in data set [1] (setting [7]) were 19.5 µM (≈ 22.5 µg/mL) and < 1 µM, respectively. The compound further came in with a bioavailability in “in vivo” of 2.6 ± 1.1%.

As to `COC(=O)N[C@H](C(=O)N[C@@H](Cc1ccc(C#Cc2cnc(N3CC4CCC(C3)N4C3COC3)nc2)cc1)[C@H](CN(Cc1c(F)cc(-c2ccn(C(F)F)n2)cc1F)NC(=O)[C@@H](NC(=O)OC)C(C)(C)C(F)(F)F)OC=O)C(C)(C)C(F)(F)F` [Example 1, (5S,10S,11S,14S)-8-(4-(1-(difluoromethyl)-1H-pyrazol-3-yl)-2,6-difluorobenzyl)-11-(4-((2-(8-(oxetan-3-yl)-3,8-diazabicyclo[3.2.1]octan-3-yl)pyrimidin-5-yl)ethynyl)benzyl)-3,6,13,16-tetraoxo-5,14-bis(1,1,1-trifluoro-2-methylpropan-2-yl)-2,17-dioxa-4,7,8,12,15-pentaazaoctadecan-10-yl formate], the concentration giving a half-maximal response (EC50) in data set [2] (setting [8]) stood at 4.62 nM. For the same compound, the “Rat. Pred. Cl. (L/H/kg)” value in data set [3] is <0.4 L/H/kg. In addition, in data set [4], the “Human Pred Cl. (L/H/kg)” value is listed as 0.37 L/H/kg. In addition, the solubility at 24 h was 20 µM in data set [1] (setting [6]) and < 1 µM in data set [1] (setting [7]).

In the case of `COC(=O)N[C@H](C(=O)N[C@@H](Cc1ccc(C#Cc2cnc(N3CC4CCC(C3)N4C3COC3)nc2)cc1)[C@H](CN(Cc1c(F)cc(-c2ccn(C(F)F)n2)cc1F)NC(=O)[C@@H](NC(=O)OC)C(C)(C)C(F)(F)F)OC(=O)CCCN1CCOCC1)C(C)(C)C(F)(F)F` [Example 2, (5S,10S,11S,14S)-8-(4-(1-(difluoromethyl)-1H-pyrazol-3-yl)-2,6-difluorobenzyl)-11-(4-((2-(8-(oxetan-3-yl)-3,8-diazabicyclo[3.2.1]octan-3-yl)pyrimidin-5-yl)ethynyl)benzyl)-3,6,13,16-tetraoxo-5,14-bis(1,1,1-trifluoro-2-methylpropan-2-yl)-2,17-dioxa-4,7,8,12,15-pentaazaoctadecan-10-yl 4-morpholinobutanoate], in data set [2] (setting [8]), the concentration giving a half-maximal response (EC50) came out at 56.6 nM. Moreover, the “Rat. Pred. Cl. (L/H/kg)” value in data set [3] is 0.84 L/H/kg. Moreover, the “Human Pred Cl. (L/H/kg)” value in data set [4] is on record as 0.53 L/H/kg. The values for the solubility at 24 h in data set [1] (setting [6]) and in data set [1] (setting [7]) were 81 µM (≈ 106 µg/mL) and < 1 µM, respectively.

`COC(=O)N[C@H](C(=O)N[C@@H](Cc1ccc(C#Cc2cnc(N3CC4CCC(C3)N4C3COC3)nc2)cc1)[C@H](CN(Cc1c(F)cc(-c2ccn(C(F)F)n2)cc1F)NC(=O)[C@@H](NC(=O)OC)C(C)(C)C(F)(F)F)OC(=O)c1cccnc1)C(C)(C)C(F)(F)F` [Example 5, (5S,10S,11S,14S)-8-(4-(1-(difluoromethyl)-1H-pyrazol-3-yl)-2,6-difluorobenzyl)-11-(4-((2-(8-(oxetan-3-yl)-3,8-diazabicyclo[3.2.1]octan-3-yl)pyrimidin-5-yl)ethynyl)benzyl)-3,6,13,16-tetraoxo-5,14-bis(1,1,1-trifluoro-2-methylpropan-2-yl)-2,17-dioxa-4,7,8,12,15-pentaazaoctadecan-10-yl nicotinate]: the concentration for a half-maximal effect (EC50) in data set [2] (setting [8]) came out at 1140 nM. Also, the “Rat. Pred. Cl. (L/H/kg)” value in data set [3] is listed as 0.58 L/H/kg. In addition, the “Human Pred Cl. (L/H/kg)” value in data set [4] worked out at 0.28 L/H/kg. In addition, the solubility at 24 h in data set [1] (setting [6]) was 89.2 µM (≈ 112 µg/mL); in data set [1] (setting [7]), < 1 µM.

`COC(=O)N[C@H](C(=O)N[C@@H](Cc1ccc(C#Cc2cnc(N3CC4CCC(C3)N4C3COC3)nc2)cc1)[C@H](CN(Cc1c(F)cc(-c2ccn(C(F)F)n2)cc1F)NC(=O)[C@@H](NC(=O)OC)C(C)(C)C(F)(F)F)OC(=O)c1ccccn1)C(C)(C)C(F)(F)F` [Example 6, (5S,10S,11S,14S)-8-(4-(1-(difluoromethyl)-1H-pyrazol-3-yl)-2,6-difluorobenzyl)-11-(4-((2-(8-(oxetan-3-yl)-3,8-diazabicyclo[3.2.1]octan-3-yl)pyrimidin-5-yl)ethynyl)benzyl)-3,6,13,16-tetraoxo-5,14-bis(1,1,1-trifluoro-2-methylpropan-2-yl)-2,17-dioxa-4,7,8,12,15-pentaazaoctadecan-10-yl picolinate]: the EC50 in data set [2] (setting [8]) came to 278 nM. Also, in data set [3], the “Rat. Pred. Cl. (L/H/kg)” value was <0.4 L/H/kg. In addition, in data set [4], the “Human Pred Cl. (L/H/kg)” value is reported as 0.29 L/H/kg. For the same compound, the values for the solubility at 24 h in data set [1] (setting [6]) and in data set [1] (setting [7]) were 38.5 µM (≈ 48.6 µg/mL) and < 1 µM, respectively.

As for `COC(=O)N[C@H](C(=O)N[C@@H](Cc1ccc(C#Cc2cnc(N3CC4CCC(C3)N4C3COC3)nc2)cc1)[C@H](CN(Cc1c(F)cc(-c2ccn(C(F)F)n2)cc1F)NC(=O)[C@@H](NC(=O)OC)C(C)(C)C(F)(F)F)OC(=O)OCOP(=O)(O)O)C(C)(C)C(F)(F)F` [Example 11, methyl ((5S,10S,11S,14S)-8-(4-(1-(difluoromethyl)-1H-pyrazol-3-yl)-2,6-difluorobenzyl)-16,16,16-trifluoro-15,15-dimethyl-11-(4-((2-(8-(oxetan-3-yl)-3,8-diazabicyclo[3.2.1]octan-3-yl)pyrimidin-5-yl)ethynyl)benzyl)-3,6,13-trioxo-10-((((phosphonooxy)methoxy)carbonyl)oxy)-5-(1,1,1-trifluoro-2-methylpropan-2-yl)-2-oxa-4,7,8,12-tetraazahexadecan-14-yl)carbamate], in data set [5], the “bioavailability of compound D” value amounted to 5.5±2.6%.

In data set [2] (Human immunodeficiency virus 1, IIIB, MT4, 120 h), `COC(=O)N[C@H](C(=O)N[C@@H](Cc1ccc(C#Cc2cnc(N3CC4CCC(C3)N4C3COC3)nc2)cc1)[C@H](CN(Cc1c(F)cc(-c2ccn(C(F)F)n2)cc1F)NC(=O)[C@@H](NC(=O)OC)C(C)(C)C(F)(F)F)OC(=O)CN(C)C(=O)[C@@H](N)Cc1ccccc1)C(C)(C)C(F)(F)F` [Example 14, (2S,3S)-1-(1-(4-(1-(difluoromethyl)-1H-pyrazol-3-yl)-2,6-difluorobenzyl)-2-((S)-4,4,4-trifluoro-2-((methoxycarbonyl)amino)-3,3-dimethylbutanoyl)hydrazinyl)-4-(4-((2-(8-(oxetan-3-yl)-3,8-diazabicyclo[3.2.1]octan-3-yl)pyrimidin-5-yl)ethynyl)phenyl)-3-((S)-4,4,4-trifluoro-2-((methoxycarbonyl)amino)-3,3-dimethylbutanamido)butan-2-yl N-(L-phenylalanyl)-N-methylglycinate] had an EC50 of 6.54 nM. In addition, the “concentration of compound 14 in plasma” value in the data set “Rat PK” is “Trace amounts”.
